Source: patent US20190135887A1, “METABOLICALLY STABLE SPEXIN PEPTIDE ANALOGS” (UNIVERSITÉ DE STRASBOURG, priority 2016, published 2019)
Read-outs that look alike come from different tables or passages of the source. Peptide text beside a SMILES is read from it. * marks the point of attachment. Propanoyl(3-C8F17) = O=C(CCC(F)(F)C(F)(F)C(F)(F)C(F)(F)C(F)(F)C(F)(F)C(F)(F)C(F)(F)F)*

Tests used:
GalR2 = target: T1, GalR2 (Homo sapiens, UniProt O43603); test: Calcium mobilization in CHO cells expressing GalR2; assay type: cell-based
T1 construct: expressed in transfected cells; host or cells: CHO cells
T1 sequence (O43603 1-387): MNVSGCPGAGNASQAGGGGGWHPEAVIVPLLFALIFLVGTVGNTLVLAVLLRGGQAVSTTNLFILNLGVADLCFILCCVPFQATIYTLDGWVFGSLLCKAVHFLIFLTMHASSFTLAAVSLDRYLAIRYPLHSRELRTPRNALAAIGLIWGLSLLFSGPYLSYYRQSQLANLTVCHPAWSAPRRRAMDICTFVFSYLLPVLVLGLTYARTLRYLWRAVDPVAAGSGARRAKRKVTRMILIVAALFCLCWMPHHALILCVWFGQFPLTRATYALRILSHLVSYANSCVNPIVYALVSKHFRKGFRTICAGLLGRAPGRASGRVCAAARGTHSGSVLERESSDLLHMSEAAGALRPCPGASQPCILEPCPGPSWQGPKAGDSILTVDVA

human GALR1 = target: T2, human GALR1 (Homo sapiens, UniProt P47211); test: Forskolin-induced cAMP accumulation, GloSensor cAMP assay in HEK293 cells; assay type: cell-based; settings: HEK293 cells stably expressing GalR1, 1 μM compound
T2 construct: expressed in transfected cells; transiently transfected with pGloSensor-22F
T2 sequence (P47211 1-349): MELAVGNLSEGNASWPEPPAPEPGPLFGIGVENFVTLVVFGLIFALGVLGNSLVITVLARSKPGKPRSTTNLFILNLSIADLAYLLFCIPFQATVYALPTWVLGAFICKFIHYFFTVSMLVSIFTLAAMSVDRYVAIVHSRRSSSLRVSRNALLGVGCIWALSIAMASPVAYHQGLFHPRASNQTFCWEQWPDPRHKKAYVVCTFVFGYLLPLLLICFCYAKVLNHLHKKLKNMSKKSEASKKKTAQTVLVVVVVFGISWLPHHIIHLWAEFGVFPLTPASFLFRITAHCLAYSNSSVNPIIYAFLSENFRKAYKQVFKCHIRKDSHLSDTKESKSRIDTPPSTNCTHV
Experimental: The effects were examined by using the GloSensor™ cAMP Assay according to manufacturer recommendations (Promega, Madison Wis., USA) with a few modifications. […] Following pre-equilibration for 2 h at 25° C., D-luciferin-loaded cells were distributed (100,000 cells per well) in a white 96-well plate and kinetic recordings of their luminescence level were acquired using a FlexStation II (Molecular Devices, Sunnyvale Calif., USA). Compounds to be tested were injected at various concentrations 10 min before forskolin addition (0.5 μM final concentration) and readings were pursued for 30 min. Experiments were conducted at 25° C. in the presence of 0.1 mM IBMX to prevent the degradation of cAMP by phospodiesterases.

[1] = Non-specific adsorption to Eppendorf protein LoBind tubes; settings: 10 μM in HEPES/BSA buffer
Experimental: The propensity of spexin analogs to bind to Eppendorf protein LoBind tubes was evaluated.
A solution of 10 μM of spexin analogs in solution in HEPES/BSA buffer was added to Eppendorf protein LoBind tubes, stirred for 5 min and vortexed for 2 min. The supernatant was removed from the tube and acetonitrile was added to dissolve the compound adsorbed to the plastic. The amount of peptide recovered was then evaluated by HPLC-MS/MS following the same protocol than above described for plasma stability analysis. The non-specific adsorption of peptides (%) was calculated by comparing the peak area of each compound recovered to that obtained with the same compound in DMSO (prevent the adsorption of the compounds to plastic).

[2] = target: T3, human galanin GAL2 receptor (Homo sapiens, UniProt O43603); test: Radioligand binding assay, [125I]galanin, transfected CHO cell membranes; settings: read-out: Affinity % of inhibition at 100 nM
T3 construct: expressed in transfected cells; host or cells: CHO cells (membrane homogenates)
T3 sequence (O43603 1-387): T1 sequence (O43603 1-387)
Experimental: Following incubation, the samples are filtered rapidly under vacuum through glass fiber filters (GF/B, Packard) presoaked with 0.3% PEI and rinsed several times with ice-cold 50 mM Tris-HCl using a 96-sample cell harvester (Unifilter, Packard). The filters are dried then counted for radioactivity in a scintillation counter (Topcount, Packard) using a scintillation cocktail (Microscint 0, Packard). The results are expressed as a percent inhibition of the control radioligand specific binding.

Human plasma stability = assay type: in vitro ADME; settings: 37° C., 2 h incubation, read-out: Human plasma stability (t1/2)
Experimental: This procedure is designed to determine the stability of a test compound in blood or plasma from human or animal species in a 96-well plate format. The test compound is quantified at 5 time points by HPLC-MS/MS analysis. Test concentration: 1 μM with a final DMSO concentration of 0.5%. Experimental protocol: Blood or plasma are pre-warmed at 37° C. water bath for 5 min, followed by addition of the test compound. The incubation is performed in a 37° C. water bath for 2 h. An aliquot of the incubation mixture is transferred to acetonitrile at 0, 0.5, 1, 1.5 and 2 h, respectively. Samples are then mixed and centrifuged. Supernatants are used for HPLC-MS/MS analysis. Reference compounds Propoxycaine and propantheline are tested simultaneously with the test compound in each assay. Analytical methods Samples are analyzed by HPLC-MS/MS using selected reaction monitoring. The HPLC system consists of a binary LC pump with autosampler, a C-18 column, and a gradient. Conditions may be adjusted as necessary. Data analysis Peak areas corresponding to the test compound are recorded. The compound remaining (%) is calculated by comparing the peak area at each time point to time zero. The half-life is calculated from the slope of the initial linear range of the logarithmic curve of compound remaining (%) vs. time, assuming first order kinetics.

[3] = Solubility in water by visual observation; assay type: physicochemical; settings: dissolution in water to reach 100 μM
Experimental: The resulting solution was vortexed 1 min following by 1 min in bath sonication. Solubility was then assessed by visual observation of the resulting dispersion (Clear/Cloudy and presence of particulates).

C57BL/6N male mice = test: Tail immersion test (nociception); assay type: in vivo
Experimental: Tail immersion test: Nociception tests were performed on male, awake C57BL/6N male mice (25-30 g weight; Janvier Labs, France). Animals were housed in groups of five per cage and kept under a 12 h/12 h light/dark cycle at 21±1° C. with ad libitum access to food and water. Experiments were performed during the light-on phase of the cycle. Mice were habituated to the testing room and equipment and handled for 1 week before starting behavioural experiments. The nociceptive thermal threshold of mice was determined using the tail immersion test. Mice were restrained in a grid pocket and their tail was immersed in a thermostated water bath. The latency (in sec) for tail withdrawal from hot water (47±0.5° C.) was taken as a measure of the nociceptive response.

[4] = CHO cells expressing GalR2, Fluo-4 AM, 37° C., read-out: EC50 Ca2+ production

Compound | EC50 (GalR2; [4]) [nM] | % of activity at 1 μM (human GALR1) [%] | Non-specific adsorption of peptide [1] [%] | inhibition at 0.1 µM [2] [%] | half-life at 1 μM (Human plasma stability) [h] | solubility [3] [µM] | tail immersion withdrawal latency (C57BL/6N male mice; 0.1 nmol icv, 15 min, baseline 9.99±0.5 sec) [s] | tail immersion withdrawal latency (C57BL/6N male mice; 0.1 nmol icv, 30 min, baseline 9.99±0.5 sec) [s] | tail immersion withdrawal latency (C57BL/6N male mice; 1 nmol icv, 15 min, baseline 10.12±0.59 sec) [s] | tail immersion withdrawal latency (C57BL/6N male mice; 1 nmol icv, 30 min, baseline 10.12±0.59 sec) [s] | EC50 (GalR2) [nM] | solubility at 2 min [3] [µM]
CSCC[C@H](NC(=O)[C@H](C)NC(=O)[C@H](CCC(N)=O)NC(=O)[C@@H]1CCCN1C(=O)[C@@H](NC(=O)[C@H](Cc1c[nH]c2ccccc12)NC(=O)[C@H](CC(N)=O)NC(C)=O)[C@@H](C)O)C(=O)N[C@@H](CC(C)C)C(=O)N[C@@H](Cc1ccc(O)cc1)C(=O)N[C@@H](CC(C)C)C(=O)N[C@@H](CCCCN)C(=O)NCC(=O)N[C@@H](C)C(=O)N[C@@H](CCC(N)=O)C(=O)N[C@@H](CCCCNC(=O)CCC(F)(F)C(F)(F)C(F)(F)C(F)(F)C(F)(F)C(F)(F)C(F)(F)C(F)(F)F)C(N)=O [LE-128] | 2.3 ± 4 | 0 | – | – | – | – | – | – | – | – | – | –
CSCC[C@H](NC(=O)[C@H](C)NC(=O)[C@H](CCC(N)=O)NC(=O)[C@@H]1CCCN1C(=O)[C@@H](NC(=O)[C@H](Cc1c[nH]c2ccccc12)NC(=O)[C@H](CC(N)=O)NC(=O)[C@H](CCCNC(=N)N)NC(=O)CNC(=O)[C@H](CCCNC(=N)N)NC(=O)CCC(F)(F)C(F)(F)C(F)(F)C(F)(F)C(F)(F)C(F)(F)C(F)(F)C(F)(F)F)[C@@H](C)O)C(=O)N[C@@H](CC(C)C)C(=O)N[C@@H](Cc1ccc(O)cc1)C(=O)N[C@@H](CC(C)C)C(=O)N[C@@H](CCCCN)C(=O)NCC(=O)N[C@@H](C)C(=O)N[C@@H](CCC(N)=O)C(N)=O [LE-130] ({Propanoyl(3-C8F17)}-RGRNWTPQAMLYLKGAQ-NH2) | 0.089 ± 0.04 | 0 | 15 | 98.4 | 5.7 | > 100 | – | – | – | – | – | –
CSCC[C@H](NC(=O)[C@H](C)NC(=O)[C@H](CCC(N)=O)NC(=O)[C@@H]1CCCN1C(=O)[C@@H](NC(=O)[C@H](Cc1c[nH]c2ccccc12)NC(=O)[C@H](CC(N)=O)NC(=O)CCC(F)(F)C(F)(F)C(F)(F)C(F)(F)C(F)(F)C(F)(F)C(F)(F)C(F)(F)F)[C@@H](C)O)C(=O)N[C@@H](CC(C)C)C(=O)N[C@@H](Cc1ccc(O)cc1)C(=O)N[C@@H](CC(C)C)C(=O)N[C@@H](CCCCN)C(=O)NCC(=O)N[C@@H](C)C(=O)N[C@@H](CCC(N)=O)C(N)=O [LE-144] | 0.038 ± 0.008 | 0 | 42 | 100 | 2.5 | > 100 | 14.26 ± 0.93 | 14.06 ± 0.34 | 15.58 ± 0.61 | 13.94 ± 0.75 | – | –
CSCC[C@H](NC(=O)[C@H](C)NC(=O)[C@H](CCC(N)=O)NC(=O)[C@@H]1CCCN1C(=O)[C@@H](NC(=O)[C@H](Cc1c[nH]c2ccccc12)NC(=O)[C@H](CC(N)=O)NC(C)=O)[C@@H](C)O)C(=O)N[C@@H](CC(C)C)C(=O)N[C@@H](Cc1ccc(O)cc1)C(=O)N[C@@H](CC(C)C)C(=O)N[C@@H](CCCCN)C(=O)NCC(=O)N[C@@H](C)C(=O)N[C@@H](CCC(N)=O)C(=O)N[C@@H](CCCCNC(=O)C(CCCNC(=N)N)NC(=O)CNC(=O)C(CCCNC(=N)N)NC(=O)CCC(F)(F)C(F)(F)C(F)(F)C(F)(F)C(F)(F)C(F)(F)C(F)(F)C(F)(F)F)C(N)=O (some centres unmarked) [LE-146] | – | – | – | – | – | – | – | – | – | – | 8.4 ± 0.7 | –
CSCC[C@H](NC(=O)[C@H](C)NC(=O)[C@H](CCC(N)=O)NC(=O)[C@@H]1CCCN1C(=O)[C@@H](NC(=O)[C@H](Cc1c[nH]c2ccccc12)NC(=O)[C@@H](N)CC(N)=O)[C@@H](C)O)C(=O)N[C@@H](CC(C)C)C(=O)N[C@@H](Cc1ccc(O)cc1)C(=O)N[C@@H](CC(C)C)C(=O)N[C@@H](CCCCN)C(=O)NCC(=O)N[C@@H](C)C(=O)N[C@@H](CCC(N)=O)C(N)=O [SPEXIN] | – | 0 | – | 68.3 | 2.52 | – | – | – | – | – | – | > 100
